Consider four compounds from patent publication US9675702B2, “Methods and compositions for the sustained release of chromium” (JDS Therapeutics, LLC, priority 2007, dated 2017).

Read-outs that look alike come from different tables or passages of the source.

In one data set the test system is Wistar rats. The data set is described as follows: 12-week chromium supplementation in water of rats fed normal or high fat diet; serum glucose, cholesterol, triglycerides, free fatty acids. It counts as in vivo. Conditions: for reduction in serum glucose levels compared with other chromium supplementation: same total elemental chromium; for serum glucose levels / serum triglyceride levels / free fatty acid levels / total serum cholesterol levels: 12 weeks; for serum glucose levels: 1.43 μg chromium in water; for total serum cholesterol levels: rats fed a normal diet (FIG. 3A). Here is the method: Wistar rats were reared at the temperature of (22±2° C.), humidity (55±5%) and a 12/12 h light/dark cycle. Pellet food and water were provided ad libitum. Rats were randomly assigned to one of eight treatment groups. Group 1: Control rats were fed standard diet (12% of calories as fat) for 12 weeks. Group 2: Rats were fed standard diet with chromium picolinate ([…] 1.43 μg chromium) included in the water for 12 weeks. Group 3: […] Group 4: […] Group 5: Rats were fed high fat diet (40% of calories as fat) for 12 weeks. Group 6: Rats were fed high-fat diet (40% of calories as fat) and with chromium picolinate (14.3 μg, providing 1.43 μg chromium) included in the water for 12 weeks. Group 7: […] Group 8: […] Bodyweight, serum glucose, composite insulin sensitivity index (CISI), serum cholesterol, serum triglycerides and serum free fatty acid levels were measured. The baseline levels for the control rats (no chromium supplementation) that were fed normal or high fat diets are shown in Table 1, below. Serum glucose levels, serum cholesterol levels, serum triglyceride levels, and free fatty acid levels were measured in all groups after twelve weeks.

The next data set relates to skeletal muscle cells. The data set is described as follows: Glucose uptake ([3H]-deoxyglucose) in cultured skeletal muscle cells with or without insulin. It counts as cell-based. Conditions: insulin-stimulated cells; versus cultures without chromium supplementation. The procedure:
The following example describes experiments that compared the effects of chromium supplementation in the form of chromium picolinate versus a combination of chromium picolinate:chormium histidinate (1:1 elemental chromium) on glucose uptake in skeletal muscle cells. The amounts of chromium picolinate and the combination were adjusted so as to provide equimolar amounts of elemental chromium. […] To assess glucose uptake, [^3H]C-deoxyglucose was added to cultures of skeletal muscle, in media with or without insulin and with or without the indicated chromium supplementation. Uptake of the labeled glucose by the cells was calculated.

The test system of another data set is rats. Conditions: cited from earlier work.
For data set [1] the following is noted: cited from earlier work.
Where [2] appears, read: rats fed a high fat diet (FIG. 4B).
[3] abbreviates: rats fed a high fat diet (FIG. 5B).
The mark [4] stands for this setting: rats fed a normal diet (FIG. 4A).
The mark [5] stands for this setting: rats fed a normal diet (FIG. 5A).

As to chromium histidinate, the “reduction in serum glucose levels compared with other chromium supplementation” value in the data set with Wistar rats (high fat diet rats (FIG. 2B)) and with Wistar rats (normal diet rats (FIG. 2A)) was “significantly greater degree than chromium picolinate” in each case. In addition, the serum glucose levels result in the data set on Wistar rats (high-fat fed rats) and in the data set on Wistar rats (normal diet rats) was “decreased serum glucose levels” throughout. Moreover, the serum triglyceride levels entry in the data set with Wistar rats (setting [2]) and with Wistar rats (setting [4]) was “significant decrease” in each case. The “free fatty acid levels” value in the data set on Wistar rats (setting [3]) and with Wistar rats (setting [5]) was “significant decrease” each time. The “total serum cholesterol levels” value in the data set with Wistar rats is reported as “significant decrease”.
As for chromium picolinate, the glucose uptake entry with skeletal muscle cells is “stimulated glucose uptake”. For the same compound, the toxic effects result in the data set with rats (rat, in vivo) is reported as “without toxic effects”. The serum triglyceride levels result with Wistar rats (setting [2]) and with Wistar rats (setting [4]) was “significant decrease” in each case. Moreover, the “free fatty acid levels” value in the data set with Wistar rats (setting [3]) and in the data set on Wistar rats (setting [5]) was “significant decrease” each time. Also, the “total serum cholesterol levels” value in the data set on Wistar rats is “significant decrease”.
On to `[Cl][Cr]([Cl])[Cl]` [chromium chloride], for which the toxic effects entry in the data set on rats (rats, levels several thousand times the upper limit of the ESADDI for chromium for humans (based on body weight)) is on record as “without toxic effects”.
Regarding `N[C@@H](Cc1c[nH]cn1)C(=O)O` [histidine], the pKa (as a rule, the negative logarithm of the acid dissociation constant) in data set [1] is about 6.0.
